Experimental data taken from ChEMBL document CHEMBL1137135 (Bioorg Med Chem Lett, 2004).

What was measured:
[1] = Plasma clearance of compound was determined in rat; assay type: ADME, organism-based
[2] = Vz of compound was determined in rat; assay type: ADME, organism-based; settings: in vivo, read-out: Vz
[3] = Binding affinity of compound towards Factor Xa
[4] = Half-life of compound was determined in rat; assay type: ADME; settings: in vivo
[5] = In vitro inhibitory activity against Factor Xa
[6] = Bioavailability in rat; assay type: ADME, organism-based; settings: in vivo
Rattus norvegicus = species on record: Rattus norvegicus; experiment: In vitro anticoagulant activity of compound was determined in rat; assay type: functional

Row | Structure (SMILES) | clearance [1] [mL/min/kg] | Vd [2] [L/kg] | Ki [3] [nM] | half-life [4] [h] | IC50 [5] [nM] | bioavailability [6] [%] | 2X PT (Rattus norvegicus) [µM] | TG 2X lag (Rattus norvegicus) [µM]
1 | CN(C)Cc1ccccc1-c1ccc(C(=O)N[C@@H](CC(=O)Nc2ccc(Cl)cn2)C(=O)N2CCCCC2)cc1 | 124 | 59.2 | 1 | 6.1 | 2.9 | 7.9 | 3.6 | 0.96
2 | NS(=O)(=O)c1ccccc1-c1ccc(C(=O)NC(CC(=O)Nc2ccc(Br)cn2)C(=O)O)cc1 (stereo not given) | 6.7 | 0.6 | 1.72 | 1 | 4.37 | 4 | 74 | –
